# Reference: patent US12616688B2, “Cell glycocalyx protection effect of anisodamine” (priority 2020, dated 2026)
# What was measured:
# Assay type in all cases: cell-based, human
# [1] = test system: hCMEC/D3 cell; test: CCK-8 cell proliferation assay; details: under 50 μg/mL LPS, 24 h
# Method: Immortalized HBMVEC hCMEC/D3 was taken from the Beijing Beina Chuanglian Biotechnology Institute (BNBIO) in China. The hCMEC/D3 endothelial cell was cultivated with an endothelial cell culture medium (ECM; cat.1001, Sciencell, USA) at 37° C. and 5% CO2. Anisodamine hydrobromide was taken from the Chengdu First Pharmaceutical Co., Ltd., Chengdu, China. Anisodamine hydrobromide was dissolved in distilled water at 20 mg/mL, then a resulting solution was filtered through a 0.22 μm filter membrane, and anisodamine hydrobromide solutions with final concentrations of 10 μg/mL, 20 μg/mL, 40 μg/mL, and 80 μg/mL each were prepared with ECM. LPS was dissolved in distilled water at 2 mg/mL, and LPS solutions with concentrations of 1 μg/mL, 10 μg/mL, 20 μg/mL, 50 μg/mL, and 100 μg/mL each were prepared with ECM. The hCMEC/D3 cell was treated with LPS and anisodamine hydrobromide.
# The cell proliferation was assayed by the CCK-8 method (C0042, Beyotime, China). 2,000 cells were inoculated into a 96-well plate, cultivated for 24 h, and then treated with LPS and anisodamine hydrobromide; and before the end of the experiment, a CCK8 assay solution was added, the plate was incubated for 1 h, and then the absorbance at 450 nm was determined by a microplate reader (Labsery K3 Touch, Thermo Fisher, USA).
# [2] = test system: hCMEC/D3 cell; test: NO production assay
# Method: 4.1 Experimental Groups: Which were the Same as in Example 2.
# A cell was pre-cooled with PBS, then ultrasonically disrupted and homogenized, and centrifuged at 16,000 g and 4° C. for 20 min, a resulting supernatant was collected, and a NO detection kit (Nanjing Jiancheng Institute of Biological Engineering A012) was used to determine the absorbance at 550 nm, thereby determining an NO level.
# [3] = test system: hCMEC/D3 barrier; test: Endothelial permeability assay (Transwell, FITC-dextran leakage); details: for LPS-induced permeability relative to control group: 24 h
# Method: 3.1 Experimental Groups: Which were the Same as in Example 2.
# A cell (5×10^4 in 200 μL ECM) was inoculated into an upper well of Transwell (0.4 μm, Corning, USA), and 200 μL of ECM was added to a lower well; the Transwell was incubated for 3 d in a 37° C. and 5% CO2 incubator until a cell confluency was 90%; a medium in the upper well was replaced with 50 μg/mL LPS or anisodamine hydrobromide (10 μg/mL or 20 μg/mL)-free fresh ECM, and a medium in the lower well was replaced with fresh ECM; 24 h later, 10 μL of fluorescein isothiocyanate (FITC)-dextran (40 kDa; Cat. 46944, Sigma-Aldrich, USA) was added to the upper well; 40 min later, 100 μL of a medium was taken from the lower well, and fluorescence values at 490 nm and 525 nm were determined; and a leakage amount of FITC-dextran was calculated to assess the permeability of an endothelial cell layer.
# [4] = test system: glycocalyx HS and cadherin of hCMEC/D3 cell; test: Immunofluorescence staining and confocal microscopy of HS and cadherin
# Method: 2.1 Experimental Groups: Normal Control Group, LPS Treatment Group (50 μg/mL), Low-Concentration Administration Group (LPS 50 μg/mL+Anisodamine Hydrobromide 10 μg/mL), and High-Concentration Administration Group (LPS 50 μg/mL+Anisodamine Hydrobromide 20 μg/mL). 2.2 Immunofluorescence Staining and Confocal Microscopy
# A cell was fixed and penetrated, then blocked with 2% goat serum, and labeled with a murine HS monoclonal antibody (mAb) (1:100, 10E4 epitope, AMS Biotechnology, UK), a rabbit cadherin polyclonal antibody (pAb) (1:100, A0734, Abclonal, China), an Alexa Fluor 488 goat anti-murine (1:400, A11001, Thermo Fisher) secondary antibody, and an Alexa Fluor 568 donkey anti-rabbit (1:400, A10042, Thermo Fisher) secondary antibody. The cell nucleus was labeled with DAPI. Mounting was conducted, and then the cell was detected under a confocal microscope at LSM710.
# [5] = LPS 50 μg/mL + anisodamine hydrobromide 10 μg/mL
# [6] = LPS 50 μg/mL + anisodamine hydrobromide 20 μg/mL
# [7] = LPS 50 μg/mL + anisodamine hydrobromide 10 or 20 μg/mL
structure (smiles),measurement,setting,value
"Br.CN1[C@H]2C[C@H](OC(=O)[C@H](CO)c3ccccc3)C[C@@H]1[C@@H](O)C2 [anisodamine hydrobromide, Anisodamine hydrobromide]",cell proliferation,[1]; anisodamine hydrobromide 20 μg/mL,significantly increased the cell proliferation
same,cell proliferation,"[1]; anisodamine hydrobromide 20 μg/mL, listed as anisodamine",significantly improve the proliferation
same,cell proliferation,[1]; anisodamine hydrobromide 80 μg/mL,significantly down-regulated the cell proliferation
same,cell proliferation,"[1]; anisodamine hydrobromide 80 μg/mL, listed as anisodamine",significantly inhibit the proliferation
same,LPS-induced NO production relative to control group,[2]; [5],1.2 times
same,LPS-induced NO level,[2]; LPS 50 μg/mL + anisodamine hydrobromide 10 μg/mL (second mention),significantly reduced the LPS-induced NO level
same,LPS-induced permeability relative to control group,[3]; [5],2.7 times
same,LPS-induced permeability relative to control group,[3]; [6],2.6 times
same,"permeability, anisodamine hydrobromide group vs control group",[3]; [7],no significant difference
same,loss of cadherin and HS,[4]; [5],inhibit the loss of cadherin and HS
same,loss of cadherin and HS,[4]; [6],inhibit the loss of cadherin and HS
same,integrity and width of a cell junction,[4]; [7],restored the integrity and width of a cell junction
same,cadherin level and HS coverage rate,"[4]; compared with the control group and the 10 μg/mL anisodamine hydrobromide group (group not named, apparently 20 μg/mL)","increased slightly, but not significantly"
